Results from patent US6376497B1, “Antifungal azole derivatives having a fluorinated vinyl group and process for preparing same” (Korea Research Institute of Chemical Technology, priority 1999, dated 2002).
In brackets after ≈: the same amount, converted by molar mass.

Assays:
Test in all cases: In vitro antifungal activity, microbroth dilution MIC
Format in all cases: cell-based
Candida albicans C1-2 = conditions: C. albicans C1-2, RPMI-1640, 35° C., 4 to 48 hours
Summary of the method: (§1)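 Broth microdilution adapted from NCCLS M27, in RPMI-1640 with 0.165 M MOPS, pH 7.0. Yeast or mould inoculum at 2×10^3 CFU/ml was mixed 1:1 with DMSO-derived compound solutions (200 to 0.10 μg/ml before mixing) and incubated at 35 °C for 4 to 48 h. MIC was the concentration showing no growth.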

[1] = tested on: Candida pseudotropicalis K. 11658; conditions: C. pseudotropicalis K. 11658, RPMI-1640, 35° C., 4 to 48 hours
Summary of the method: as §1

[2] = tested on: Cryptococcus neoformans A. 34144; conditions: Cry. neoformans A. 34144, RPMI-1640, 35° C., 4 to 48 hours
Summary of the method: as §1

[3] = tested on: Trichophyton mentagrophytes A. 9129; conditions: T. mentagrophytes A. 9129, RPMI-1640, 35° C., 4 to 48 hours
Summary of the method: as §1

[4] = tested on: Trichophyton mentagrophytes B. 32663; conditions: T. mentagrophytes B. 32663, RPMI-1640, 35° C., 4 to 48 hours
Summary of the method: as §1

[5] = tested on: Cryptococcus neoformans IFM. 40092; conditions: Cry. neoformans IFM. 40092, RPMI-1640, 35° C., 4 to 48 hours
Summary of the method: as §1

[6] = tested on: Candida albicans IFO. 1385; conditions: C. albicans IFO. 1385, RPMI-1640, 35° C., 4 to 48 hours
Summary of the method: as §1

[7] = tested on: Torulopsis glabrata B. 16205; conditions: T. glabrata B. 16205, RPMI-1640, 35° C., 4 to 48 hours
Summary of the method: as §1

[8] = tested on: Candida tropicalis A. 13803; conditions: C. tropicalis A. 13803, RPMI-1640, 35° C., 4 to 48 hours
Summary of the method: as §1

Candida krusei K. 11655 = conditions: C. krusei K. 11655, RPMI-1640, 35° C., 4 to 48 hours
Summary of the method: as §1

[9] = tested on: Aspergillus furnigatus B. 19119; conditions: A furnigatus B. 19119, RPMI-1640, 35° C., 4 to 48 hours
Summary of the method: as §1

[10] = tested on: Candida albicans A. 10231; conditions: C. albicans A. 10231, RPMI-1640, 35° C., 4 to 48 hours
Summary of the method: as §1

[11] = tested on: Aspergillus niger A. 16404; conditions: A. niger A. 16404, RPMI-1640, 35° C., 4 to 48 hours
Summary of the method: as §1

[12] = tested on: Cryptococcus neoformans B. 42419; conditions: Cry. neoformans B. 42419, RPMI-1640, 35° C., 4 to 48 hours
Summary of the method: as §1

[13] = tested on: Candida parapsitosis A. 7330; conditions: C. parapsitosis A. 7330, RPMI-1640, 35° C., 4 to 48 hours
Summary of the method: as §1

Molecule	Minimal inhibitory concentration (MIC) (Candida albicans C1-2)	Minimal inhibitory concentration (MIC) [1]	Minimal inhibitory concentration (MIC) [2]	Minimal inhibitory concentration (MIC) [3]	Minimal inhibitory concentration (MIC) [4]	Minimal inhibitory concentration (MIC) [5]	Minimal inhibitory concentration (MIC) [6]	Minimal inhibitory concentration (MIC) [7]	Minimal inhibitory concentration (MIC) [8]	Minimal inhibitory concentration (MIC) (Candida krusei K. 11655)	Minimal inhibitory concentration (MIC) [9]	Minimal inhibitory concentration (MIC) [10]	Minimal inhibitory concentration (MIC) [11]	Minimal inhibitory concentration (MIC) [12]	Minimal inhibitory concentration (MIC) [13]
(E&Z) 1-{4-[cis-2-(2,4-dichlorophenyl)-2-(1H-1-imidazolylmethyl)-1,3-dioxolan-4-ylmethoxy]-phenoxy}-1,3,3,3-tetrafluoro-2-phenyl-1-propene [Example 19]	6.25 µg/mL	25.0 µg/mL	1.56 µg/mL	1.56 µg/mL	0.78 µg/mL	0.20 µg/mL	0.78 µg/mL	3.13 µg/mL	25.0 µg/mL	50.0 µg/mL	1.56 µg/mL	6.25 µg/mL	3.13 µg/mL	0.78 µg/mL	>100 µg/mL
FC(OCC1COC(Cn2ccnc2)(c2ccc(F)cc2F)O1)=C(c1cccc(Cl)c1)C(F)(F)F (mixture of isomers) [Ex. 64]	12.5 µg/mL	25.0 µg/mL	1.56 µg/mL	6.25 µg/mL	1.56 µg/mL	0.20 µg/mL	0.78 µg/mL	6.25 µg/mL	100 µg/mL	50.0 µg/mL	3.13 µg/mL	12.5 µg/mL	100 µg/mL	1.56 µg/mL	100 µg/mL
FC(OCC1COC(Cn2ccnc2)(c2ccc(Cl)cc2Cl)O1)=C(c1ccc(C(F)(F)F)cc1)C(F)(F)F (stereo not drawn) [Ex. 25]	12.5 µg/mL (≈ 21.4 µM)	100 µg/mL (≈ 171 µM)	1.56 µg/mL (≈ 2.67 µM)	25.0 µg/mL (≈ 42.7 µM)	12.5 µg/mL (≈ 21.4 µM)	0.78 µg/mL (≈ 1.33 µM)	1.56 µg/mL (≈ 2.67 µM)	25.0 µg/mL (≈ 42.7 µM)	50.0 µg/mL (≈ 85.4 µM)	100 µg/mL (≈ 171 µM)	100 µg/mL (≈ 171 µM)	6.25 µg/mL (≈ 10.7 µM)	100 µg/mL (≈ 171 µM)	1.56 µg/mL (≈ 2.67 µM)	>100 µg/mL
COc1cccc(C=C(F)OCC2COC(Cn3ccnc3)(c3ccc(F)cc3F)O2)c1 (mixture of isomers) [Ex. 43]	25.0 µg/mL	6.25 µg/mL	1.56 µg/mL	6.25 µg/mL	1.56 µg/mL	0.39 µg/mL	0.78 µg/mL	6.25 µg/mL	50.0 µg/mL	12.5 µg/mL	12.5 µg/mL	25.0 µg/mL	>100 µg/mL	1.56 µg/mL	12.5 µg/mL
